Assay [1] concerns Staphylococcus aureus, MRSA (ATCC 33591). Description: Antibacterial MIC assay (microbroth dilution, CLSI). In kind it is cell-based. To be noted: 35° C., 16-20 hours. From the text:
(§1) All MIC testing of bacteria followed the Clinical and Laboratory Standards Institute (CLSI) guidelines for antimicrobial testing of aerobic bacteria (Methods for Dilution Antimicrobial Susceptibility Tests for Bacteria that Grow Aerobically; Approved Standard—Tenth Edition, M07-A10; Performance Standards for Antimicrobial Susceptibility Testing; Twenty-fifth Informational Supplement, M100-S25).
(§2) Briefly, the microbroth dilution MIC method was used to quantitatively measure the in vitro antibacterial activity of a compound against a given bacterial isolate. The following bacterial strains were evaluated: Staphylococcus aureus, MRSA (ATCC 33591) and Streptococcus pneumoniae (ATCC 49619). Bacteria were grown in cation-adjusted Mueller-Hinton broth, with additions as required per species growth requirements (e.g. 3% lysed horse blood for fastidious organisms such as S. pneumoniae). A direct colony suspension in saline was prepared from colonies on an overnight agar plate to achieve a turbidity equivalent to 0.5 McFarland standard, which was subsequently diluted into the assay plate to achieve 5×10^5 CFU/mL. Assays plates were prepared by 2-fold dilution of compound across the plate and included a positive growth control.
In general terms: In broth dilution the organism is exposed to a series of concentrations in liquid medium.

For assay [2], the system named is Streptococcus pneumoniae (ATCC 49619). The assay is described as above. To be noted: 35° C., 16-20 hours; for MIC Streptococcus pneumoniae (ATCC 49619): 3% lysed horse blood. The assay is classed as cell-based.
From the text: as §1, §2

We go through six compounds from patent US20220273683A1, “BORON-CONTAINING SMALL MOLECULES” (Bill & Melinda Gates Foundation, priority 2016, published 2022).

≈ marks a conversion by molar mass, not a printed value.

For `C[C@@H]1CC[C@@]23CCC(=O)[C@H]2[C@]1(C)[C@H](OC(=O)COc1ccc2c(c1F)B(O)OC2)C[C@@](C)([C@@H]1CO1)[C@@H](O)[C@@H]3C` [Compound 27, (3aR,4R,5R,7R,8S,9R,9aS,12R)-8-hydroxy-4,7,9,12-tetramethyl-7-((R)-oxiran-2-yl)-3-oxodecahydro-4,9a-propanocyclopenta[8]annulen-5-yl2-((7-fluoro-1-hydroxy-1,3-dihydrobenzo[c][1,2]oxaborol-6-yl)oxy)acetate], in assay [1], the “MIC Staphylococcus aureus, MRSA (ATCC 33591)” value (“MIC Staphylococcus aureus” below) was “A (MIC of ≤0.25 is A)”. For the same compound, the “MIC Streptococcus pneumoniae (ATCC 49619)” value (shortened to “MIC Streptococcus pneumoniae”) in assay [2] is given as “B (0.5-2 is B)”.
For `C[C@@H]1CC[C@@]23CCC(=O)[C@H]2[C@]1(C)[C@H](OC(=O)COc1ccc2c(c1F)B(O)OC2)C[C@@](C)(Cc1ccccc1)[C@@H](O)[C@@H]3C` [Compound 10, (3aR,4R,5R,7R,8S,9R,9aS,12R)-7-benzyl-8-hydroxy-4,7,9,12-tetramethyl-3-oxodecahydro-4,9a-propanocyclopenta[8]annulen-5-yl2-((7-fluoro-1-hydroxy-1,3-dihydrobenzo[c][1,2]oxaborol-6-yl)oxy)acetate], in that order: “A (MIC of ≤0.25 is A)” and “B (0.5-2 is B)”.
With `CONC[C@]1(C)C[C@@H](OC(=O)COc2ccc3c(c2F)B(O)OC3)[C@]2(C)[C@H](C)CC[C@]3(CCC(=O)[C@H]32)[C@@H](C)[C@@H]1O` [Compound 45, (3aR,4R,5R,7S,8S,9R,9aS,12R)-8-hydroxy-7-((methoxyamino)methyl)-4,7,9,12-tetramethyl-3-oxodecahydro-4,9a-propanocyclopenta[8]annulen-5-yl2-((7-fluoro-1-hydroxy-1,3-dihydrobenzo[c][1,2]oxaborol-6-yl)oxy)acetate], in assay [1], the “MIC Staphylococcus aureus” value is given as “B (0.5-2 is B)”. In addition, the “MIC Streptococcus pneumoniae” value in assay [2] was “C (4-32 is C)”.
What is called MIC is the least concentration at which growth counts as inhibited. A higher MIC goes with weaker potency. For `C[C@@H]1CC[C@@]23CCC(=O)[C@H]2[C@]1(C)[C@H](OC(=O)COc1ccc2c(c1F)B(O)OC2)C[C@@](C)(CCN1CCOCC1)[C@@H](O)[C@@H]3C` [Compound 41, (3aR,4R,5R,7R,8S,9R,9aS,12R)-8-hydroxy-4,7,9,12-tetramethyl-7-(2-morpholinoethyl)-3-oxodecahydro-4,9a-propanocyclopenta[8]annulen-5-yl 2-((7-fluoro-1-hydroxy-1,3-dihydrobenzo[c][1,2]oxaborol-6-yl)oxy)acetate], the MIC fell in the range of 4 to 32 µg/mL (≈ 6.5 to 52 µM) in assay [1] (Staphylococcus aureus) and 4 to 32 µg/mL (≈ 6.5 to 52 µM) in assay [2] (Streptococcus pneumoniae, ATCC49619, 3% lysed horse blood).
Regarding `CSC[C@]1(C)C[C@@H](OC(=O)COc2ccc3c(c2F)B(O)OC3)[C@]2(C)[C@H](C)CC[C@]3(CCC(=O)[C@H]32)[C@@H](C)[C@@H]1O` [Compound 29, (3aR,4R,5R,7R,8S,9R,9aS,12R)-8-hydroxy-4,7,9,12-tetramethyl-7-((methylthio)methyl)-3-oxodecahydro-4,9a-propanocyclopenta[8]annulen-5-yl2-((7-fluoro-1-hydroxy-1,3-dihydrobenzo[c][1,2]oxaborol-6-yl)oxy)acetate], the “MIC Staphylococcus aureus” value in assay [1] is “A (MIC of ≤0.25 is A)”. Further, in assay [2], the “MIC Streptococcus pneumoniae” value was “C (4-32 is C)”.
For `CCN(CC)CC[C@]1(C)C[C@@H](OC(=O)COc2ccc3c(c2F)B(O)OC3)[C@]2(C)[C@H](C)CC[C@]3(CCC(=O)[C@H]32)[C@@H](C)[C@@H]1O` [Compound 42, (3aR,4R,5R,7R,8S,9R,9aS,12R)-7-(2-(diethylamino)ethyl)-8-hydroxy-4,7,9,12-tetramethyl-3-oxodecahydro-4,9a-propanocyclopenta[8]annulen-5-yl2-((7-fluoro-1-hydroxy-1,3-dihydrobenzo[c][1,2]oxaborol-6-yl)oxy)acetate], the “MIC Staphylococcus aureus” value in assay [1] was “C (4-32 is C)”. The “MIC Streptococcus pneumoniae” value in assay [2] is listed as “D (≥64 is D)”.
